Reference: patent US8278298B2, “Inhibition of tau-tau-association” (Wista Laboratories Ltd., priority 1995, dated 2012)
Entries after “also recorded” stand apart in the source; their conditions may differ. Values belong to the molecule of their own block, whether it stands above or below them.

Columns and labels:
[1] = tested on: 3T3 cells transfected with PIF2::T40; experiment: Lipofectin/tau protein transfer into 3T3 cells expressing full-length tau; format: cell-based, mouse; conditions: truncated tau transferred via lipofectin, all three concentrations of truncated tau; thionine 1 μM
Protocol: FIG. 30: Lipofectin/tau protein transfers into 3T3 cells transfected with PIF2::T40. Relative cell survival (normalised to cell counts after Lipofectin treatment without protein) is shown for approximately equimolar concentrations of full-length (T40, 220 nM) and truncated tau (dGAE, 300 nM), without (unshaded) or with shaded) thionine at 1 μM. Truncated tau is more toxic than full-length tau (p=0.02), despite the fact that at equimolar concentrations, the total protein load is 5× greater in the case of full-length tau.
FIGS. 31A and 31B: (FIG. 31A) Reversal of truncated tau toxicity: The toxicity of truncated tau transferred via lipofectin into 3T3 cells expressing full-length tau is concentration dependent. […] (FIG. 31B) Similar experiment in which full-length tau was transferred via lipofectin into 3T3 cells expressing full-length. Both toxicity and thionine effects were much less apparent.

[2] = biological target: tau-tubulin binding (depolymerised tubulin coated, tau incubated) (Homo sapiens, UniProt P10636); experiment: Tau-tubulin binding assay; conditions: read-out: Ki for inhibition of the tau-tubulin binding interaction in vitro
Sequence of tau-tubulin binding (depolymerised tubulin coated, tau incubated) (P10636 1-441 isoform P10636-8): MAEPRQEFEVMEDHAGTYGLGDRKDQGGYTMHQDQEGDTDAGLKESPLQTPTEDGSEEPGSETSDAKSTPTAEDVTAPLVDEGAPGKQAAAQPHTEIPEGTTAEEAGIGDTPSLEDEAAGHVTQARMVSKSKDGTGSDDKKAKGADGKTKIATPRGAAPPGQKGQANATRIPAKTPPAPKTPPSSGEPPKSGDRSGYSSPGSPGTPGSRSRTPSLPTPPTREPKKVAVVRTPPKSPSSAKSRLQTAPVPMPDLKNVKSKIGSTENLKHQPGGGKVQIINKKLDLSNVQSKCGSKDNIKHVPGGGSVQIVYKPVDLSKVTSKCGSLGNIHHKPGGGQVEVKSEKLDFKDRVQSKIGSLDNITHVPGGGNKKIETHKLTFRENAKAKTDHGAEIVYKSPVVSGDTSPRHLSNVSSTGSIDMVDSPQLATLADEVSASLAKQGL
Protocol: A method of determining any possible interference, i.e. binding of tau or a derivative thereof to tubulin molecules, comprises contacting a depolymerised tubulin preparation, or preparation of taxol-stabilised microtubules with an agent suspected of being capable of modulating or inhibiting pathological tau-tau association and a tau compound mentioned in above step c) followed by detection of the tau-tubulin binding.
Next, a truncated unit terminating at Glu-391 was incubated. Only the lafter could be detected as mAb 423 immunoreactivity. […] Therefore plating of the core tau unit for passive binding to solid phase matrix was carried out in this buffer. If desired, a depolymerised tubulin preparation or a preparation of microtubules in the same buffer can be plated for passive binding for determination of tau-tubulin binding. Suitable agents for blocking excess binding sites are milk extract, bovine serum albumin, gelatine, etc. […] No binding of full-length tau was seen without prior plating of the core tau unit in the solid phase. When both species were present, binding was seen to depend on concentration of both species. […]
(§1) FIG. 20: Selective inhibition of tau-tau-binding by thionine. […] The Ki values were calculated using the Kd values obtained from the corresponding binding studies using full-length tau. […]

neuronal cell lines = experiment: Toxicity for neuronal cell lines; format: cell-based; conditions: concentrations up to 2 μM
[3] = tested on: tau/MAP2 binding interaction (foetal MAP2C); experiment: Tau/MAP2 binding in the standard binding assay; conditions: truncated tau/MAP2C and MAP2C/full-length tau configurations
From the text: One possible explanation for the lack of MAP2 in PHFs might be that MAP2 in PHFs might be MAP2 is unable to bind to the core tau unit of the PHF because of sequence differences in the repeat regions. This was examined experimentally using the standard binding assay in two configurations: truncated tau in the solid phase with foetal MAP2C in the aqueous phase, and MAP2C in the solid phase with full-length tau in the aqueous phase. […] Thus, aggregation in the tandem-repeat region is not selective for tau, and the inhibitory activity of phenothiazine inhibitors such as thionine is not dependent on sequences unique to tau. The reason why MAP2 is not found in PHFs is at present unknown, but factors may include the contribution of the large N-terminal domain found in the adult form of MAP2, compartment differences within the cell, or other differences in processing of the MAP2 molecules.

NIE-115 cells = experiment: pNFH aggregates and neurite incorporation in NIE-115 cells; format: cell-based
Protocol: (§2) Neuronal cell lines (N2A, NIE-115) were cultured in DMEM containing 2% or 10% foetal calf serum and 5% horse serum on tissue culture plates coated with collagen. These were all grown at 37° C. in an atmosphere containing 5% CO2. Initial immunohistochemical studies of neuronal cell lines prior to transfection led to the identification of cytoplasmic aggregates immunoreactive with mAb 423 forming in the cytoplasm of undifferentiated neuroblastoma cells (N2A cells) and in PC-12 cells after brief treatment with dibutyryl-cAMP (db-cAMP, known to differentiate neuroblastoma cells in tissue culture). […] In the course of differentiation, this endogenous mAb 423 immunoreactivity was seen to shift from the cytoplasm to neurites. Immunoprecipitation of mAb423 immunoreactivity from these cells led to the identification of a species with gel mobility of 230 kDa which was recognised by SMI-31. […] We refer to them as presumptive-NFH aggregates (pNFH).
Rather, pNFH immunoreactivity was normally incorporated into growing neurites during the course of differentiation, although an early perinuclear-arc stage was also seen. NIE cells were transfected as above with the pIF2 vector containing either full-length or truncated tau protein and grown in the presence of thionine. The effects of adding db-cAMP in the presence or absence of thionine were then examined.

[4] = tested on: 3T3 fibroblast transfected with full-length tau protein; experiment: Cytoskeletal distribution of tau in 3T3 fibroblasts transfected with full-length tau; format: cell-based, mouse
Protocol: (§3) Mouse fibroblast 3T3 cells were transfected with a eukaryotic expression vector (pIF2) containing full-length and truncated forms of tau protein under constitutive control by a β-globin promotor. This vector contains a neomycin resistance gene as a selectable marker (pSV2neo; Sambrook et al. (1989), loc. cit.; modified by M. N. Neuberger). Cells were cultured in […] (DMEM) containing antimicrobial agents and 10% foetal calf serum at 37° C. in an atmosphere of 5% CO2. They were transfected with plasmid DNA either using a standard calcium phosphate protocol or by lipofection (according to manufacturers protocol; Gibco BRL). Cells which had integrated the plasmid DNA were selected by viability in medium containing Geneticin (0.5 mg/ml; Southern and Berg (1982), J. Mol. Appl. Genet. 1, 327).
The influence of thionine on the tau-tubulin binding interaction was examined in vivo by culturing 3T3 fibroblast transfected with full-length tau protein in the presence of thionine at a range of concentrations.

[5] = tested on: 3T3 cells transfected with truncated tau; experiment: Viability of 3T3 cells transfected with truncated tau; format: cell-based, mouse; conditions: grown in higher concentrations of thionine
Protocol: as §3
The number of viable cell lines transfected with truncated tau increased when the cells were grown in the presence of higher concentrations of thionine.

[6] = biological target: T1, tau-tau binding (truncated core tau unit of the PHF / full-length tau T40) (Homo sapiens, UniProt P10636); experiment: Tau-tau binding assay (truncated core tau unit in solid phase, tau in aqueous phase); conditions: for Ki: standard competitive inhibition model
T1 construct: the truncated core tau unit terminating at Ala-390 (“a”); made in house; host or cells: E. coli BL21 (DE3), plasmid pRK172
T1 sequence (P10636 614-707 limits assumed): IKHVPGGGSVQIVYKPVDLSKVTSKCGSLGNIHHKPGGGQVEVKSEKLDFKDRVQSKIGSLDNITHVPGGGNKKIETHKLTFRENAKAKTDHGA
From the text: Particularly preferred is the following configuration for tau-tau binding assays (FIG. 10): A tau fragment, preferably a recombinant tau fragment, corresponding to the truncated tau unit of the core PHF is bound to a solid phase, e.g. a conventional ELISA plate, in buffer conditions which have been shown not to favour tau-tau association. […] The solid phase is usually poly(vinyl-chloride), but may be other polymers such as cellulose, polyacrylamide, nylon, polystyrene or polypropylene. The solid supports may be in the form of tubes, beads, discs or micro plates, or any other surfaces suitable for conducting an assay, and which on passive binding of tau protein, exposes the high affinity tau capture site. Following binding, the solid phase-antibody complex is washed in preparation for the test sample.
Next, a truncated unit terminating at Glu-391 was incubated. Only the lafter could be detected as mAb 423 immunoreactivity. […] Therefore plating of the core tau unit for passive binding to solid phase matrix was carried out in this buffer. If desired, a depolymerised tubulin preparation or a preparation of microtubules in the same buffer can be plated for passive binding for determination of tau-tubulin binding. Suitable agents for blocking excess binding sites are milk extract, bovine serum albumin, gelatine, etc. […]
FIG. 8: Tau binding assay configuration in which binding of two truncated units is measured. […]
FIG. 10: Standard configuration for measurement of binding of full-length tau (“t”) to the truncated core tau unit previously bound passively to the solid phase (“a”). […] Binding is detected by an appropriate antibody, which recognises an epitope located near the N-terminus of full-length tau.
as §1
The assay is carried out in a 96-well PVC microtitre plate, with solutions added and readings taken with respect to individual wells: […]

PC-12 cells = experiment: pNFH aggregates and neurite incorporation in PC-12 cells; format: cell-based; conditions: for Frequency of cells with pNFH aggregates: after db-cAMP, with thionine
Protocol: as §2
PC-12 cells were transfected with the pIF2 vector containing either the PHF-core tau fragment truncated at Glu-391 or full-length tau protein. As with 3T3 fibroblasts, no viable cell lines transfected with truncated tau were produced unless cells were grown in thionine following transfection. Once stahilised, transfected cell lines were analysed in the presence or absence of db-cAMP and in the presence and absence of thionine. Two end-points were examined: formation of cytoplasmic pNPH aggregates, and distribution of pNFH immunoreactivity into neurites.

3T3 cells = experiment: Toxicity of inhibitors in 3T3 cells; format: cell-based, mouse
Protocol: as §3
The toxicity of the truncated core tau unit might be reversible in part if the prototype phenothiazine inhibitors could be used to block self-aggregation in vivo. This would be feasible only if the compounds were not intrinsically toxic at concentrations needed to block tau-tau binding. […] In practice, 3T3 cells could be grown several month in the presence of 2 μM thionine.

[7] = systemic administration; cited from earlier work

Ki [2]: 8000 nM | Effect on tau/MAP2 binding interaction [3]: blocked | Ki [6]: 100 nM
Molecule: thionine
Reversal of truncated tau toxicity [1]: significantly reversed toxicity | Toxicity for neuronal cell lines (neuronal cell lines): not toxic | pNFH-neurite index (NIE-115 cells; NIE-ND1, after db-cAMP, with thionine as printed (0.66 without)): 0.1 | Proportion of cells containing pNFH aggregates (NIE-115 cells; NIE-ND6, transfected with truncated tau, with thionine (44% after withdrawal)): 14% | Incorporation of transgenic tau protein into the microtubular cytoskeleton (NIE-115 cells; cells transfected with full-length tau): did not interfere | Proportion of cells containing pNFH aggregates (NIE-115 cells; cells transfected with full-length tau, with thionine (16% after withdrawal)): 7% | Concentration causing disruption of normal cytoskeletal distribution of tau immunoreactivity [4]: 4 to 8 µM | Effect on cytoskeletal distribution of tau ([4]; concentration range 0.5-2 μM): no effect | Number of viable cell lines transfected with truncated tau [5]: increased | pNFH-neurite index (PC-12 cells; PC-12 cells transfected with truncated tau, with thionine (0.04 without)): 0.49 | Frequency of cells with pNFH aggregates (PC-12 cells; all transfected cells (49% after withdrawal)): 27% | Frequency of cells with pNFH aggregates (PC-12 cells; cells transfected with full-length tau (32% after withdrawal)): 16% | Frequency of cells with pNFH aggregates (PC-12 cells; cells transfected with truncated tau (60% after withdrawal)): 36% | Inhibition of pNFH aggregates in the cytoplasm (PC-12 cells; untransfected PC-12 cells): Dose-dependent inhibition | Toxicity in 3T3 cells / fibroblasts (3T3 cells): lowest toxicity; also recorded: does not appear to have substantial intrinsic toxicity | Concentration at which 3T3 cells could be grown several months (3T3 cells; prolonged culture): 2000 nM

Ki [6]: 100 nM
Molecule: acriflavin [reference compound]
Toxicity in 3T3 cells / fibroblasts (3T3 cells): lowest toxicity

Molecule: CN(C)c1ccc2nc3ccc(=[N+](C)C)cc-3sc2c1 [methylene blue]
CNS penetration [7]: CNS penetration following systemic administration has been described

Binding to the core tau unit ([6]; introduced in the aqueous phase): incapable of pathological binding
Molecule: POTr: fetal rat tau
